Laboratory results taken from patent US8796256B2 (Janssen Pharmaceutica NV, priority 2010, dated 2014).

What follows are compounds tested against T1, ERR1 (also known as ERR-α or ERR-1) (Homo sapiens, UniProt P11474) (assay: TR-FRET assay (disruption of co-activator peptide binding to ERR1 LBD)). Conditions: 6 nM 6His-ERR1LBD, 6 nM GST-SRC-2 peptide; average of 3 independent experiments.
T1 sequence (P11474 193-421 limits assumed): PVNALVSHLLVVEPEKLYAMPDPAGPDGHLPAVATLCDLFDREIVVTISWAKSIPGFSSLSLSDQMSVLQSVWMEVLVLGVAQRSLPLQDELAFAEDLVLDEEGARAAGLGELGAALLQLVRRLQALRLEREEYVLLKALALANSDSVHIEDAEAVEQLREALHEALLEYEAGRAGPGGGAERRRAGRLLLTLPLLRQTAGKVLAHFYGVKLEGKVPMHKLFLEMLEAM
Type: biochemical
Outline: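 His-tagged ERR1 ligand-binding domain and GST-labelled SRC-2 peptide, each 6 nM, equilibrated at 25° C for 4-18 h in Tris pH 8/Hepes/KCl/DTT/delipidated BSA buffer. Compound-induced loss of co-activator binding read as Eu cryptate→XL665 energy transfer; values from hyperbolic curve fits averaged over 3 independent runs.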
O=C(CN1C(=O)S/C(=C\c2ccc3c(cnn3Cc3ccc(Cl)cc3C(F)(F)F)c2)C1=O)N1CCN[C@@H](CO)C1 [Compound 57, (5Z)-5-({1-[4-Chloro-2-(trifluoromethyl)benzyl]-1H-indazol-5-yl}methylidene)-3-{2-[(3R)-3-(hydroxymethyl)piperazin-1-yl]-2-oxoethyl}-1,3-thiazolidine-2,4-dione] was tested, and the EC50 was 59 nM.
With COC1CCN(S(=O)(=O)NC(=O)CN2C(=O)S/C(=C\c3ccc4c(cnn4Cc4ccc(Cl)cc4C(F)(F)F)c3)C2=O)CC1 [Compound 58, 2-[(5Z)-5-({1-[4-chloro-2-(trifluoromethyl)benzyl]-1H-indazol-5-yl}methylidene)-2,4-dioxo-1,3-thiazolidin-3-yl]-N-[(4-methoxypiperidin-1-yl)sulfonyl]acetamide] the EC50 was 44 nM.
CS(=O)(=O)NC(=O)CN1C(=O)S/C(=C\c2ccc3c(cnn3Cc3ccc(C(F)(F)F)cc3C(F)(F)F)c2)C1=O [Compound 60, 2-[(5Z)-5-({1-[2,4-Bis(trifluoromethyl)-benzyl]-1H-indazol-5-yl}methylidene)-2,4-dioxo-1,3-thiazolidin-3-yl]-N-(methyl-sulfonyl)acetamide] was tested, and the EC50 was 57 nM.
With NS(=O)(=O)CN1C(=O)S/C(=C\c2ccc3c(cnn3Cc3ccc(F)cc3C(F)(F)F)c2)C1=O [Compound 61, 1-[(5Z)-5-({1-[4-Fluoro-2-(trifluoromethyl)benzyl]-1H-indazol-5-yl}methylidene)-2,4-dioxo-1,3-thiazolidin-3-yl]methanesulfonamide] the EC50 was 269 nM.
Work on CN1[C@@H]2CC[C@H]1C[C@H](N1C(=O)S/C(=C\c3ccc4c(cnn4Cc4ccc(C(F)(F)F)cc4C(F)(F)F)c3)C1=O)C2 [Compound 62, (5Z)-5-({1-[2,4-Bis(trifluoromethyl)benzyl]-1H-indazol-5-yl}methylidene)-3-[(3-exo)-8-methyl-8-azabicyclo[3.2.1]oct-3-yl]-1,3-thiazolidine-2,4-dione] yielded an EC50 of 19 nM.
O=C1S/C(=C\c2ccc3c(cnn3Cc3ccc(C(F)(F)F)cc3C(F)(F)F)c2)C(=O)N1C1CN2CCC1CC2 (stereo not drawn) [Compound 63, (5Z)-3-(1-Azabicyclo[2.2.2]oct-3-yl)-5-({1-[2,4-bis(trifluoromethyl)benzyl]-1H-indazol-5-yl}methylidene)-1,3-thiazolidine-2,4-dione] gave an EC50 of 20 nM.
In the case of CC(=O)NS(=O)(=O)CN1C(=O)S/C(=C\c2ccc3c(cnn3Cc3ccc(F)cc3C(F)(F)F)c2)C1=O [Compound 64, N-({[(5Z)-5-({1-[4-Fluoro-2-(trifluoromethyl)benzyl]-1H-indazol-5-yl}methylidene)-2,4-dioxo-1,3-thiazolidin-3-yl)methyl}sulfonyl)acetamide], the EC50 is reported as 485 nM.
In the case of O=C1OCCC1N1C(=O)S/C(=C\c2ccc3c(cnn3Cc3ccc(C(F)(F)F)cc3C(F)(F)F)c2)C1=O (stereo not drawn) [Compound 65, (5Z)-5-({1-[2,4-Bis(trifluoromethyl)benzyl]-1H-indazol-5-yl}methylidene)-3-(2-oxotetrahydrofuran-3-yl)-1,3-thiazolidine-2,4-dione], the EC50 is reported as 50 nM.
For O=C1S/C(=C\c2ccc3c(cnn3Cc3ccc(C(F)(F)F)cc3C(F)(F)F)c2)C(=O)N1CCn1cncn1 [Compound 66, (5Z)-5-({1-[2,4-Bis(trifluoromethyl)benzyl]-1H-indazol-5-yl}methylidene)-3-[2-(1H-1,2,4-triazol-1-yl)ethyl]-1,3-thiazolidine-2,4-dione], the EC50 was 16 nM.
O=C1S/C(=C\c2ccc3c(cnn3Cc3ccc(C(F)(F)F)cc3C(F)(F)F)c2)C(=O)N1C1CCNCC1 [Compound 67, (5Z)-5-({1-[2,4-Bis(trifluoromethyl)benzyl]-1H-indazol-5-yl}methylidene)-3-piperidin-4-yl-1,3-thiazolidine-2,4-dione] was tested, and the EC50 was 620 nM.
NS(=O)(=O)CN1C(=O)S/C(=C\c2ccc3c(cnn3Cc3ccc(C(F)(F)F)cc3C(F)(F)F)c2)C1=O [Compound 68] showed an EC50 of 124 nM.
CN1CCC[C@H]1CN1C(=O)S/C(=C\c2ccc3c(cnn3Cc3ccc(C(F)(F)F)cc3C(F)(F)F)c2)C1=O [Compound 69, (5Z)-5-({1-[2,4-Bis(trifluoromethyl)benzyl]-1H-indazol-5-yl}methylidene)-3-{[(2S)-1-methylpyrrolidin-2-yl]methyl}-1,3-thiazolidine-2,4-dione] showed an EC50 of 23 nM.
With O=C(O)C1CC(N2C(=O)S/C(=C\c3ccc4c(cnn4Cc4ccc(C(F)(F)F)cc4C(F)(F)F)c3)C2=O)C1 (stereo not drawn) [Compound 70, 3-[(5Z)-5-({1-[2,4-Bis(trifluoromethyl)benzyl]-1H-indazol-5-yl}methylidene)-2,4-dioxo-1,3-thiazolidin-3-yl]cyclobutanecarboxylic acid] the EC50 was 48 nM.
CC(=O)NS(=O)(=O)CN1C(=O)S/C(=C\c2ccc3c(cnn3Cc3ccc(C(F)(F)F)cc3C(F)(F)F)c2)C1=O [Compound 71, N-({[(5Z)-5-({1-[2,4-Bis(trifluoromethyl)benzyl]-1H-indazol-5-yl}methylidene)-2,4-dioxo-1,3-thiazolidin-3-yl]methyl}sulfonyl)acetamide] showed an EC50 of 87 nM.
Work on O=C1S/C(=C\c2ccc3c(cnn3Cc3ccc(Cl)cc3C(F)(F)F)c2)C(=O)N1CCN1CCCC(F)C1 (stereo not drawn) [Compound 74, (5Z)-5-({1-[4-Chloro-2-(trifluoromethyl)benzyl]-1H-indazol-5-yl}methylidene)-3-[2-(3-fluoropiperidin-1-yl)ethyl]-1,3-thiazolidine-2,4-dione] yielded an EC50 of 110 nM.
Work on O=C1S/C(=C\c2ccc3c(cnn3Cc3ccc(Cl)cc3C(F)(F)F)c2)C(=O)N1CCN1CC(F)(F)C1 [Compound 75, (5Z)-5-({1-[4-Chloro-2-(trifluoromethyl)benzyl]-1H-indazol-5-yl}methylidene)-3-[2-(3,3-difluoroazetidin-1-yl)ethyl]-1,3-thiazolidine-2,4-dione] yielded an EC50 of 127 nM.
NC1CCCC(N2C(=O)S/C(=C\c3ccc4c(cnn4Cc4ccc(Cl)cc4C(F)(F)F)c3)C2=O)C1 (stereo not drawn) [Compound 76, (5Z)-3-(3-Aminocyclohexyl)-5-({1-[4-chloro-2-(trifluoromethyl)benzyl]-1H-indazol-5-yl}methylidene)-1,3-thiazolidine-2,4-dione] was tested, and the EC50 was 14 nM.
O=C1S/C(=C\c2ccc3c(cnn3Cc3ccc(Cl)cc3C(F)(F)F)c2)C(=O)N1C1CCCNCC1 (stereo not drawn) [Compound 77, (5Z)-3-Azepan-4-yl-5-({1-[4-chloro-2-(trifluoromethyl)benzyl]-1H-indazol-5-yl}methylidene)-1,3-thiazolidine-2,4-dione] showed an EC50 of 28 nM.
O=C1S/C(=C\c2ccc3c(cnn3Cc3ccc(Cl)cc3C(F)(F)F)c2)C(=O)N1CCN1C[C@@H]2C[C@H]1CN2 [Compound 78, (5Z)-5-({1-[4-Chloro-2-(trifluoromethyl)benzyl]-1H-indazol-5-yl}methylidene)-3-[2-(1S,4S)-(2,5-diazabicyclo[2.2.1]hept-2-yl)ethyl]-1,3-thiazolidine-2,4-dione] was tested, and the EC50 was 41 nM.
In the case of C[C@@H](N)CN1C(=O)S/C(=C\c2ccc3c(cnn3Cc3ccc(C(F)(F)F)cc3C(F)(F)F)c2)C1=O [Compound 80, (5Z)-3-[(2R)-2-Aminopropyl]-5-({1-[2,4-bis(trifluoromethyl)benzyl]-1H-indazol-5-yl}methylidene)-1,3-thiazolidine-2,4-dione], the EC50 is reported as 41 nM.
Compound C[C@H](N)CN1C(=O)S/C(=C\c2ccc3c(cnn3Cc3ccc(C(F)(F)F)cc3C(F)(F)F)c2)C1=O [Compound 81, (5Z)-3-[(2S)-2-Aminopropyl]-5-({1-[2,4-bis(trifluoromethyl)benzyl]-1H-indazol-5-yl}methylidene)-1,3-thiazolidine-2,4-dione] has an EC50 of 51 nM.
